From ChEMBL document CHEMBL5303304, “EUbOPEN Chemogenomics Library - IncuCyte” (2023)

Assays:
Format in all cases: toxicity, cell-based
HEK-293T = assay: Incucyte cell viability with HEK293T; settings: human, 10 µM, compound concentration 10 uM
U2OS = assay: Incucyte cell viability with U2OS; settings: human, 10 µM, compound concentration 10 uM
Fibroblast = assay: Incucyte cell viability with human fibroblast; settings: 10 µM, compound concentration 10 uM
Further: unitless GR value; below 1 slowed growth and below 0 cell loss.

## NC(=O)c1cc2c(-c3ccc(C(=O)NCc4ccnc(Cl)c4)s3)cccc2s1
HEK-293T; 6 h, replicate number 1
  Growth Rate: -0.51
HEK-293T; 6 h, replicate number 2
  Growth Rate: -0.71
HEK-293T; 12 h, replicate number 1
  Growth Rate: -0.4
HEK-293T; 12 h, replicate number 2
  Growth Rate: -0.32
HEK-293T; 18 h, replicate number 1
  Growth Rate: -0.29
HEK-293T; 18 h, replicate number 2
  Growth Rate: -0.17
HEK-293T; 24 h, replicate number 1
  Growth Rate: -0.23
HEK-293T; 24 h, replicate number 2
  Growth Rate: -0.09
U2OS; 0 h, replicate number 1
  Growth Rate: -0.34
U2OS; 0 h, replicate number 2
  Growth Rate: 0.46
U2OS; 6 h, replicate number 1
  Growth Rate: -0.24
U2OS; 6 h, replicate number 2
  Growth Rate: -0.51
U2OS; 12 h, replicate number 1
  Growth Rate: 0.05
U2OS; 12 h, replicate number 2
  Growth Rate: -0.23
U2OS; 18 h, replicate number 1
  Growth Rate: 0
U2OS; 18 h, replicate number 2
  Growth Rate: -0.03
U2OS; 24 h, replicate number 1
  Growth Rate: 0.05
U2OS; 24 h, replicate number 2
  Growth Rate: 0.03
Fibroblast; 6 h, replicate number 1
  Growth Rate: -1
Fibroblast; 6 h, replicate number 2
  Growth Rate: -0.95
Fibroblast; 12 h, replicate number 2
  Growth Rate: -0.43
Fibroblast; 18 h, replicate number 2
  Growth Rate: -0.25
Fibroblast; 24 h, replicate number 2
  Growth Rate: -0.11

## Cn1c2ccccc2c2c3c(c4c5ccccc5n(CCC#N)c4c21)CNC3=O [GO-6976]
HEK-293T; 0 h, replicate number 1
  Growth Rate: -0.49
HEK-293T; 0 h, replicate number 2
  Growth Rate: -0.13
HEK-293T; 6 h, replicate number 1
  Growth Rate: 0.62
HEK-293T; 6 h, replicate number 2
  Growth Rate: 0.05
HEK-293T; 12 h, replicate number 1
  Growth Rate: 0.69
HEK-293T; 12 h, replicate number 2
  Growth Rate: -0.2
HEK-293T; 18 h, replicate number 1
  Growth Rate: 0.36
HEK-293T; 18 h, replicate number 2
  Growth Rate: -0.19
HEK-293T; 24 h, replicate number 1
  Growth Rate: 0.7
HEK-293T; 24 h, replicate number 2
  Growth Rate: -0.14
U2OS; 0 h, replicate number 2
  Growth Rate: -0.94
U2OS; 18 h, replicate number 1
  Growth Rate: 0.29
U2OS; 18 h, replicate number 2
  Growth Rate: 0.63
U2OS; 24 h, replicate number 1
  Growth Rate: 0.17
U2OS; 24 h, replicate number 2
  Growth Rate: 0.39
Fibroblast; 6 h, replicate number 1
  Growth Rate: -0.79
Fibroblast; 12 h, replicate number 1
  Growth Rate: -1
Fibroblast; 18 h, replicate number 2
  Growth Rate: 0.88
Fibroblast; 24 h, replicate number 2
  Growth Rate: 0.48

## CCc1cnn2c(NCc3ccc[n+]([O-])c3)cc(N3CCCCC3CCO)nc12 (centres undefined)
HEK-293T; 0 h, replicate number 1
  Growth Rate: -0.01
HEK-293T; 6 h, replicate number 1
  Growth Rate: -0.39
HEK-293T; 6 h, replicate number 2
  Growth Rate: -0.72
HEK-293T; 12 h, replicate number 1
  Growth Rate: -0.26
HEK-293T; 12 h, replicate number 2
  Growth Rate: -0.66
HEK-293T; 18 h, replicate number 1
  Growth Rate: -0.2
HEK-293T; 18 h, replicate number 2
  Growth Rate: -0.53
HEK-293T; 24 h, replicate number 1
  Growth Rate: -0.14
HEK-293T; 24 h, replicate number 2
  Growth Rate: -0.41
U2OS; 0 h, replicate number 1
  Growth Rate: -0.62
U2OS; 0 h, replicate number 2
  Growth Rate: 0.91
U2OS; 6 h, replicate number 1
  Growth Rate: 0.19
U2OS; 6 h, replicate number 2
  Growth Rate: 0.07
U2OS; 12 h, replicate number 1
  Growth Rate: -0.08
U2OS; 12 h, replicate number 2
  Growth Rate: 0.11
U2OS; 18 h, replicate number 1
  Growth Rate: -0.15
U2OS; 18 h, replicate number 2
  Growth Rate: -0.08
U2OS; 24 h, replicate number 1
  Growth Rate: -0.23
Fibroblast; 0 h, replicate number 1
  Growth Rate: -0.96
Fibroblast; 0 h, replicate number 2
  Growth Rate: 0.67
Fibroblast; 6 h, replicate number 1
  Growth Rate: 0.11
Fibroblast; 6 h, replicate number 2
  Growth Rate: 0
Fibroblast; 12 h, replicate number 1
  Growth Rate: 0.25
Fibroblast; 12 h, replicate number 2
  Growth Rate: -0.13
Fibroblast; 18 h, replicate number 1
  Growth Rate: 0.16
Fibroblast; 18 h, replicate number 2
  Growth Rate: -0.04
Fibroblast; 24 h, replicate number 1
  Growth Rate: 0.25
Fibroblast; 24 h, replicate number 2
  Growth Rate: -0.14

## CN[C@@H](C)C/C=C/c1cncc(OC(C)C)c1 [ISPRONICLINE]
HEK-293T; 0 h, replicate number 1
  Growth Rate: 0.9
HEK-293T; 0 h, replicate number 2
  Growth Rate: 0.86
HEK-293T; 6 h, replicate number 1
  Growth Rate: 0.31
HEK-293T; 12 h, replicate number 1
  Growth Rate: 0.02
HEK-293T; 18 h, replicate number 1
  Growth Rate: 0.32
HEK-293T; 24 h, replicate number 1
  Growth Rate: 0.28
HEK-293T; 24 h, replicate number 2
  Growth Rate: 0.96
U2OS; 0 h, replicate number 1
  Growth Rate: -0.66
U2OS; 0 h, replicate number 2
  Growth Rate: 0.2
U2OS; 6 h, replicate number 1
  Growth Rate: 0.65
U2OS; 12 h, replicate number 1
  Growth Rate: 0.82
U2OS; 18 h, replicate number 1
  Growth Rate: 0.83
U2OS; 24 h, replicate number 1
  Growth Rate: 0.83
Fibroblast; 0 h, replicate number 1
  Growth Rate: -0.27
Fibroblast; 0 h, replicate number 2
  Growth Rate: -0.46
Fibroblast; 6 h, replicate number 2
  Growth Rate: 0.53
Fibroblast; 12 h, replicate number 1
  Growth Rate: -0.29
Fibroblast; 12 h, replicate number 2
  Growth Rate: 0.98
Fibroblast; 18 h, replicate number 1
  Growth Rate: 0.22
Fibroblast; 18 h, replicate number 2
  Growth Rate: 0.72
Fibroblast; 24 h, replicate number 1
  Growth Rate: 0.97
Fibroblast; 24 h, replicate number 2
  Growth Rate: 0.87

## Cc1cc(Cn2c(N3CC4(CNC4)C3)nc3c(N4CCN(C)CC4)cc(Cl)cc32)cc(C)c1F
HEK-293T; 6 h, replicate number 1
  Growth Rate: -0.99
HEK-293T; 6 h, replicate number 2
  Growth Rate: -1
HEK-293T; 12 h, replicate number 1
  Growth Rate: -0.88
HEK-293T; 12 h, replicate number 2
  Growth Rate: -0.92
HEK-293T; 18 h, replicate number 1
  Growth Rate: -0.67
HEK-293T; 18 h, replicate number 2
  Growth Rate: -0.74
HEK-293T; 24 h, replicate number 1
  Growth Rate: -0.51
HEK-293T; 24 h, replicate number 2
  Growth Rate: -0.56
U2OS; 0 h, replicate number 1
  Growth Rate: -1
U2OS; 6 h, replicate number 1
  Growth Rate: -0.98
U2OS; 6 h, replicate number 2
  Growth Rate: -0.99
U2OS; 12 h, replicate number 1
  Growth Rate: -0.97
U2OS; 12 h, replicate number 2
  Growth Rate: -0.92
U2OS; 18 h, replicate number 1
  Growth Rate: -0.92
U2OS; 18 h, replicate number 2
  Growth Rate: -0.84
U2OS; 24 h, replicate number 1
  Growth Rate: -0.79
U2OS; 24 h, replicate number 2
  Growth Rate: -0.77
Fibroblast; 0 h, replicate number 1
  Growth Rate: -1
Fibroblast; 6 h, replicate number 2
  Growth Rate: -1
Fibroblast; 12 h, replicate number 1
  Growth Rate: -0.99
Fibroblast; 12 h, replicate number 2
  Growth Rate: -1
Fibroblast; 18 h, replicate number 1
  Growth Rate: -0.95
Fibroblast; 18 h, replicate number 2
  Growth Rate: -0.98
Fibroblast; 24 h, replicate number 1
  Growth Rate: -0.88
Fibroblast; 24 h, replicate number 2
  Growth Rate: -0.93

## CCOC(=O)c1ncn2c1[C@@H]1CCCN1C(=O)c1cc(OC)ccc1-2
HEK-293T; 0 h, replicate number 1
  Growth Rate: 0.49
HEK-293T; 0 h, replicate number 2
  Growth Rate: 1
HEK-293T; 12 h, replicate number 2
  Growth Rate: 0.89
HEK-293T; 18 h, replicate number 1
  Growth Rate: 0.83
HEK-293T; 24 h, replicate number 1
  Growth Rate: 0.82
HEK-293T; 24 h, replicate number 2
  Growth Rate: 0.95
U2OS; 0 h, replicate number 1
  Growth Rate: -0.46
U2OS; 0 h, replicate number 2
  Growth Rate: -0.82
U2OS; 6 h, replicate number 1
  Growth Rate: 0.4
U2OS; 12 h, replicate number 1
  Growth Rate: 0.92
U2OS; 18 h, replicate number 1
  Growth Rate: 0.9
U2OS; 24 h, replicate number 1
  Growth Rate: 0.81
Fibroblast; 0 h, replicate number 1
  Growth Rate: 0.48
Fibroblast; 0 h, replicate number 2
  Growth Rate: -0.85
Fibroblast; 6 h, replicate number 1
  Growth Rate: 0.02
Fibroblast; 6 h, replicate number 2
  Growth Rate: 0.2
Fibroblast; 18 h, replicate number 1
  Growth Rate: 0.09
Fibroblast; 24 h, replicate number 1
  Growth Rate: 0.63

## Cn1cncc1-c1cn(-c2cccc(C(=O)Nc3cccc(C(F)(F)F)c3)c2)nn1
HEK-293T; 6 h, replicate number 1
  Growth Rate: -0.32
HEK-293T; 6 h, replicate number 2
  Growth Rate: -0.41
HEK-293T; 12 h, replicate number 1
  Growth Rate: -0.13
HEK-293T; 12 h, replicate number 2
  Growth Rate: 0.03
HEK-293T; 18 h, replicate number 1
  Growth Rate: 0.06
HEK-293T; 18 h, replicate number 2
  Growth Rate: 0.14
HEK-293T; 24 h, replicate number 1
  Growth Rate: 0.24
HEK-293T; 24 h, replicate number 2
  Growth Rate: 0.3
U2OS; 0 h, replicate number 2
  Growth Rate: 0.55
U2OS; 6 h, replicate number 1
  Growth Rate: 0.83
U2OS; 12 h, replicate number 2
  Growth Rate: 0.86
U2OS; 18 h, replicate number 2
  Growth Rate: 0.89
U2OS; 24 h, replicate number 1
  Growth Rate: 0.95
Fibroblast; 6 h, replicate number 2
  Growth Rate: 0.53
Fibroblast; 12 h, replicate number 1
  Growth Rate: 0.87
Fibroblast; 12 h, replicate number 2
  Growth Rate: 0.77
Fibroblast; 18 h, replicate number 1
  Growth Rate: 0.87
Fibroblast; 18 h, replicate number 2
  Growth Rate: 0.64
Fibroblast; 24 h, replicate number 1
  Growth Rate: 0.48
Fibroblast; 24 h, replicate number 2
  Growth Rate: 0.87

## O=C1NCc2ccc3c(-c4cccc(Cl)c4)c[nH]c3c21
HEK-293T; 6 h, replicate number 1
  Growth Rate: -0.5
HEK-293T; 12 h, replicate number 1
  Growth Rate: -0.49
HEK-293T; 12 h, replicate number 2
  Growth Rate: -0.24
HEK-293T; 18 h, replicate number 1
  Growth Rate: -0.21
HEK-293T; 18 h, replicate number 2
  Growth Rate: -0.13
HEK-293T; 24 h, replicate number 1
  Growth Rate: -0.06
HEK-293T; 24 h, replicate number 2
  Growth Rate: -0.07
U2OS; 6 h, replicate number 1
  Growth Rate: -0.34
U2OS; 6 h, replicate number 2
  Growth Rate: 0.05
U2OS; 12 h, replicate number 1
  Growth Rate: -0.32
U2OS; 12 h, replicate number 2
  Growth Rate: -0.15
U2OS; 18 h, replicate number 1
  Growth Rate: -0.16
U2OS; 18 h, replicate number 2
  Growth Rate: -0.11
U2OS; 24 h, replicate number 1
  Growth Rate: -0.1
U2OS; 24 h, replicate number 2
  Growth Rate: -0.06
Fibroblast; 6 h, replicate number 2
  Growth Rate: -1
Fibroblast; 12 h, replicate number 1
  Growth Rate: -1
Fibroblast; 12 h, replicate number 2
  Growth Rate: -0.89
Fibroblast; 18 h, replicate number 1
  Growth Rate: -0.89
Fibroblast; 18 h, replicate number 2
  Growth Rate: -0.75
Fibroblast; 24 h, replicate number 1
  Growth Rate: -0.46
Fibroblast; 24 h, replicate number 2
  Growth Rate: -0.57

## CC(=O)Nc1nc(C)c(S(=O)(=O)Nc2ccc(C(O)(C(F)(F)F)C(F)(F)F)cc2)s1
HEK-293T; 0 h, replicate number 1
  Growth Rate: 0.65
HEK-293T; 6 h, replicate number 1
  Growth Rate: 0.85
HEK-293T; 12 h, replicate number 1
  Growth Rate: 0.86
HEK-293T; 12 h, replicate number 2
  Growth Rate: 0.89
HEK-293T; 18 h, replicate number 2
  Growth Rate: 0.85
HEK-293T; 24 h, replicate number 2
  Growth Rate: 0.78
U2OS; 0 h, replicate number 1
  Growth Rate: -0.47
U2OS; 6 h, replicate number 1
  Growth Rate: 0.76
U2OS; 12 h, replicate number 1
  Growth Rate: 0.61
U2OS; 18 h, replicate number 1
  Growth Rate: 0.74
U2OS; 24 h, replicate number 1
  Growth Rate: 0.79
Fibroblast; 0 h, replicate number 2
  Growth Rate: 0.65
Fibroblast; 6 h, replicate number 2
  Growth Rate: 0.51
Fibroblast; 12 h, replicate number 1
  Growth Rate: 0.45
Fibroblast; 12 h, replicate number 2
  Growth Rate: 0.84
Fibroblast; 18 h, replicate number 1
  Growth Rate: 1
Fibroblast; 18 h, replicate number 2
  Growth Rate: 0.9
